According to BindingDB's records for patent US10143681 (Merck Sharp & Dohme, 2018):

Biological target: Plasma kallikrein (Homo sapiens, UniProt P03952)
Assay: Kallikrein Assay
Protocol: The effectiveness of a compound of the present invention as an inhibitor of Kallikrein can be determined using a relevant purified serine protease, and an appropriate synthetic substrate. The rate of hydrolysis of the chromogenic or fluorogenic substrate by the relevant serine protease was measured both in the absence and presence of compounds of the present invention. Assays were conducted at room temperature or at 37° C. […] A decrease in the rate of fluorescence change in the presence of inhibitor is indicative of enzyme inhibition. Such methods are known to one skilled in the art. […] Times required to achieve equilibration between enzyme and inhibitor were determined in control experiments. […] IC50 was determined by inflection point from a four parameter logistic curve fit. Ki was calculated using the Cheng Prusoff equation, Ki=IC50/(1+([S]/Km)).

Sequence of Plasma kallikrein (P03952 20-390 limits assumed): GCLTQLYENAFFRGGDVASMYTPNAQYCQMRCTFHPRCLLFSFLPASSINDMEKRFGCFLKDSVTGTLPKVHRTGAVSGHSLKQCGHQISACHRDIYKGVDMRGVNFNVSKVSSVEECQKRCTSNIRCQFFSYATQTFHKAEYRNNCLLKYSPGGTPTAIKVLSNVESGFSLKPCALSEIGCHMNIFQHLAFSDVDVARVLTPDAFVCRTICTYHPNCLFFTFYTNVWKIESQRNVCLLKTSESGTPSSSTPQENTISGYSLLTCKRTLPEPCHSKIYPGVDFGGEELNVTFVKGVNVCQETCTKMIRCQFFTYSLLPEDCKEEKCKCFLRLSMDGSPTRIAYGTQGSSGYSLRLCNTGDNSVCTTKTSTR
Sequence of Plasma kallikrein (P03952 391-638 limits assumed): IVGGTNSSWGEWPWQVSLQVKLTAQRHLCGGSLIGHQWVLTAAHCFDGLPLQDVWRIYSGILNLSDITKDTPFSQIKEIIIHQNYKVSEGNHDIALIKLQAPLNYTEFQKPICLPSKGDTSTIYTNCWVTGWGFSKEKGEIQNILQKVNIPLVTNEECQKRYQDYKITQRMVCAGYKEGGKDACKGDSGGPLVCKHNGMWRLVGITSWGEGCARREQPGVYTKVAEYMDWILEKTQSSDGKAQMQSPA

IC50: 0.042 µM
SMILES: COc1cc([C@@H](CC2CC2)C(=O)Nc2ccc(C(=O)O)cc2)[n+]([O-])cc1-c1c(C(F)F)ccc(Cl)c1F [US10143681, Example 69]
